Reference: patent publication US8772480B2, “Inhibitors of PI3 kinase and/or mTOR” (priority 2009, dated 2014)

Legend:
Assay type in all cases: biochemical
[1] = target: ProfilerPro Kinase Selectivity Assay Kit kinases (Homo sapiens, UniProt O00141); details: SGK1; 1 μM compound concentration
Experimental: (§1) Compounds were profiled using a LabChip® EZ Reader II platform and a ProfilerPro Kinase Selectivity Assay Kit (Caliper Lifesciences Inc., Hopkinton, Mass.). Compounds were tested at a concentration of 1 M in duplicate, with mean data reported as percent of control (POC).

[2] = target: ProfilerPro Kinase Selectivity Assay Kit kinases (Homo sapiens, UniProt O14757); details: CHK1; 1 μM compound concentration
Experimental: as §1

[3] = target: ProfilerPro Kinase Selectivity Assay Kit kinases (Homo sapiens, UniProt O14965); details: AURORA A; 1 μM compound concentration
Experimental: as §1

[4] = target: ProfilerPro Kinase Selectivity Assay Kit kinases (Homo sapiens, UniProt O75116); details: ROCK2; 1 μM compound concentration
Experimental: as §1

[5] = target: ProfilerPro Kinase Selectivity Assay Kit kinases (Homo sapiens, UniProt O75582); details: MSK1; 1 μM compound concentration
Experimental: as §1

[6] = target: ProfilerPro Kinase Selectivity Assay Kit kinases (Homo sapiens, UniProt O95819); details: HGK; 1 μM compound concentration
Experimental: as §1

[7] = target: ProfilerPro Kinase Selectivity Assay Kit kinases (Homo sapiens, UniProt P00519); details: ABL; 1 μM compound concentration
Experimental: as §1

[8] = target: ProfilerPro Kinase Selectivity Assay Kit kinases (Homo sapiens, UniProt P06213); details: INSR; 1 μM compound concentration
Experimental: as §1

[9] = target: ProfilerPro Kinase Selectivity Assay Kit kinases (Homo sapiens, UniProt P06241); details: FYN; 1 μM compound concentration
Experimental: as §1

[10] = target: ProfilerPro Kinase Selectivity Assay Kit kinases (Homo sapiens, UniProt P07948); details: LYN; 1 μM compound concentration
Experimental: as §1

[11] = target: ProfilerPro Kinase Selectivity Assay Kit kinases (Homo sapiens, UniProt P08069); details: IGF1R; 1 μM compound concentration
Experimental: as §1

[12] = target: ProfilerPro Kinase Selectivity Assay Kit kinases (Homo sapiens, UniProt P08581); details: cMET; 1 μM compound concentration
Experimental: as §1

[13] = target: ProfilerPro Kinase Selectivity Assay Kit kinases (Homo sapiens, UniProt P11362); details: FGFR1; 1 μM compound concentration
Experimental: as §1

[14] = target: ProfilerPro Kinase Selectivity Assay Kit kinases (Homo sapiens, UniProt P12931); details: SRC; 1 μM compound concentration
Experimental: as §1

[15] = target: ProfilerPro Kinase Selectivity Assay Kit kinases (Homo sapiens, UniProt P17612); details: PKA alpha; 1 μM compound concentration
Experimental: as §1

[16] = target: ProfilerPro Kinase Selectivity Assay Kit kinases (Homo sapiens, UniProt P24941); details: CDK2; 1 μM compound concentration
Experimental: as §1

[17] = target: ProfilerPro Kinase Selectivity Assay Kit kinases (Homo sapiens, UniProt P27361); details: ERK1; 1 μM compound concentration
Experimental: as §1

[18] = target: ProfilerPro Kinase Selectivity Assay Kit kinases (Homo sapiens, UniProt P31751); details: AKT2; 1 μM compound concentration
Experimental: as §1

[19] = target: ProfilerPro Kinase Selectivity Assay Kit kinases (Homo sapiens, UniProt P35968); details: KDR; 1 μM compound concentration
Experimental: as §1

[20] = target: ProfilerPro Kinase Selectivity Assay Kit kinases (Homo sapiens, UniProt P36888); details: FLT3; 1 μM compound concentration
Experimental: as §1

[21] = target: ProfilerPro Kinase Selectivity Assay Kit kinases (Homo sapiens, UniProt P43405); details: SYK; 1 μM compound concentration
Experimental: as §1

[22] = target: ProfilerPro Kinase Selectivity Assay Kit kinases (Homo sapiens, UniProt P48730); details: CK1 delta; 1 μM compound concentration
Experimental: as §1

[23] = target: ProfilerPro Kinase Selectivity Assay Kit kinases (Homo sapiens, UniProt P49137); details: MAPKAPK2; 1 μM compound concentration
Experimental: as §1

[24] = target: ProfilerPro Kinase Selectivity Assay Kit kinases (Homo sapiens, UniProt Q06187); details: BTK; 1 μM compound concentration
Experimental: as §1

[25] = target: ProfilerPro Kinase Selectivity Assay Kit kinases (Homo sapiens, UniProt Q13177); details: PAK2; 1 μM compound concentration
Experimental: as §1

[26] = target: ProfilerPro Kinase Selectivity Assay Kit kinases (Homo sapiens, UniProt Q13188); details: MST2; 1 μM compound concentration
Experimental: as §1

[27] = target: ProfilerPro Kinase Selectivity Assay Kit kinases (Homo sapiens, UniProt Q13627); details: DYRK1a; 1 μM compound concentration
Experimental: as §1

[28] = target: ProfilerPro Kinase Selectivity Assay Kit kinases (Homo sapiens, UniProt Q8IW41); details: PRAK; 1 μM compound concentration
Experimental: as §1

[29] = target: ProfilerPro Kinase Selectivity Assay Kit kinases (Homo sapiens, UniProt Q9BZL6); details: PKD2; 1 μM compound concentration
Experimental: as §1

[30] = target: ProfilerPro Kinase Selectivity Assay Kit kinases (Homo sapiens, UniProt Q9P0L2); details: MARK1; 1 μM compound concentration
Experimental: as §1

[31] = system: ProfilerPro Kinase Selectivity Assay Kit kinases; details: 1 μM compound concentration
Experimental: as §1

Sequence of ProfilerPro Kinase Selectivity Assay Kit kinases (Homo sapiens, UniProt P36888) (P36888 27-993 limits assumed): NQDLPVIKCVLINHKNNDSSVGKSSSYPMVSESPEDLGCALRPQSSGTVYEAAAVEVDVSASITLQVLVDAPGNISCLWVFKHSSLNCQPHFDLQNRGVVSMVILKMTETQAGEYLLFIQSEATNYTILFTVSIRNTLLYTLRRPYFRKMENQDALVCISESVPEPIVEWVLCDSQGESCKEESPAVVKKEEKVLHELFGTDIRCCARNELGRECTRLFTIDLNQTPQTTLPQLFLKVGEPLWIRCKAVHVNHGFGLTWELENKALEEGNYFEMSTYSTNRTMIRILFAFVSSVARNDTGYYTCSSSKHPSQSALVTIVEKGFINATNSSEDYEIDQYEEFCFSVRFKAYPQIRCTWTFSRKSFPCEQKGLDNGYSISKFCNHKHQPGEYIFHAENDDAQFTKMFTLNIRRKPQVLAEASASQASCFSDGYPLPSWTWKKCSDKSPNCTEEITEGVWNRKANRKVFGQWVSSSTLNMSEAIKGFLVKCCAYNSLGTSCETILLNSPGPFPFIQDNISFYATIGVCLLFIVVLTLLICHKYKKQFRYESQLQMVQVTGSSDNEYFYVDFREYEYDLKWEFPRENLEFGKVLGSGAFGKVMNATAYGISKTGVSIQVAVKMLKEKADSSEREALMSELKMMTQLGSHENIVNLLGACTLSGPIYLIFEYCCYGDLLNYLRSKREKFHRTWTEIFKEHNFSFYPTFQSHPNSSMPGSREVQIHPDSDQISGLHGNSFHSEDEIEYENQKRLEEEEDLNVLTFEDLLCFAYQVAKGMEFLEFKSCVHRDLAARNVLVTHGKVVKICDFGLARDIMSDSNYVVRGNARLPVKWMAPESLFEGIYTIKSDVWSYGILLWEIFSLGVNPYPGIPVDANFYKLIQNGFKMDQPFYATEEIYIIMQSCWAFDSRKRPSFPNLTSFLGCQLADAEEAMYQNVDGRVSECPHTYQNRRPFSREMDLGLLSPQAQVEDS
Sequence of ProfilerPro Kinase Selectivity Assay Kit kinases (Homo sapiens, UniProt P06241) (P06241 2-537 limits assumed): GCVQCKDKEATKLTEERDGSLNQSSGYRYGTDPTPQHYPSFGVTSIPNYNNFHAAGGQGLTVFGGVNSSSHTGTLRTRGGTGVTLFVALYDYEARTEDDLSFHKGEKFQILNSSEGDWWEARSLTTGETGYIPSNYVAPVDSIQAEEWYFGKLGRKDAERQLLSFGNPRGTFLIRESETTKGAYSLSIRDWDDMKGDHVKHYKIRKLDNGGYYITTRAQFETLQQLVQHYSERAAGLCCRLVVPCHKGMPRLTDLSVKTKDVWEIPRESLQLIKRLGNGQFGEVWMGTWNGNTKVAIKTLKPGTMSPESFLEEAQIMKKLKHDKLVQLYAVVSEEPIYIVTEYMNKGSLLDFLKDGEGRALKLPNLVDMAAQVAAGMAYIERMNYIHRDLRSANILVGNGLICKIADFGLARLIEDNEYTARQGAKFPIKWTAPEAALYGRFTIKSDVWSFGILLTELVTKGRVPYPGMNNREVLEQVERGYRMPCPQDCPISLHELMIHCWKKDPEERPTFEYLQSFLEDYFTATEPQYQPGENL
Sequence of ProfilerPro Kinase Selectivity Assay Kit kinases (Homo sapiens, UniProt P12931) (P12931 2-536 limits assumed): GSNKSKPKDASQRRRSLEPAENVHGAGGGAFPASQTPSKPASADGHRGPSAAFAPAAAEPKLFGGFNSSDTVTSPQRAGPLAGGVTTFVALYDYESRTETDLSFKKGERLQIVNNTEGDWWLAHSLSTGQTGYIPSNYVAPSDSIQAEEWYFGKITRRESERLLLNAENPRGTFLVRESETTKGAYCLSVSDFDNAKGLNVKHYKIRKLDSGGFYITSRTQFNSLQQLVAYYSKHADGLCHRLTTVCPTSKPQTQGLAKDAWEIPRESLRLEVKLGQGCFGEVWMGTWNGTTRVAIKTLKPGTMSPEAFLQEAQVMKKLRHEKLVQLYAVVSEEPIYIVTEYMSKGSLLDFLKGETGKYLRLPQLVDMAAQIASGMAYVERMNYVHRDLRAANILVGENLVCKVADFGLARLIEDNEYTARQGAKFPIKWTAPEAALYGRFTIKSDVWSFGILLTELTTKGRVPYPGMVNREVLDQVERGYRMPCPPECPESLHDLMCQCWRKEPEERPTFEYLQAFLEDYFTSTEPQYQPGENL
Sequence of ProfilerPro Kinase Selectivity Assay Kit kinases (Homo sapiens, UniProt P08581) (P08581 25-1390 limits assumed): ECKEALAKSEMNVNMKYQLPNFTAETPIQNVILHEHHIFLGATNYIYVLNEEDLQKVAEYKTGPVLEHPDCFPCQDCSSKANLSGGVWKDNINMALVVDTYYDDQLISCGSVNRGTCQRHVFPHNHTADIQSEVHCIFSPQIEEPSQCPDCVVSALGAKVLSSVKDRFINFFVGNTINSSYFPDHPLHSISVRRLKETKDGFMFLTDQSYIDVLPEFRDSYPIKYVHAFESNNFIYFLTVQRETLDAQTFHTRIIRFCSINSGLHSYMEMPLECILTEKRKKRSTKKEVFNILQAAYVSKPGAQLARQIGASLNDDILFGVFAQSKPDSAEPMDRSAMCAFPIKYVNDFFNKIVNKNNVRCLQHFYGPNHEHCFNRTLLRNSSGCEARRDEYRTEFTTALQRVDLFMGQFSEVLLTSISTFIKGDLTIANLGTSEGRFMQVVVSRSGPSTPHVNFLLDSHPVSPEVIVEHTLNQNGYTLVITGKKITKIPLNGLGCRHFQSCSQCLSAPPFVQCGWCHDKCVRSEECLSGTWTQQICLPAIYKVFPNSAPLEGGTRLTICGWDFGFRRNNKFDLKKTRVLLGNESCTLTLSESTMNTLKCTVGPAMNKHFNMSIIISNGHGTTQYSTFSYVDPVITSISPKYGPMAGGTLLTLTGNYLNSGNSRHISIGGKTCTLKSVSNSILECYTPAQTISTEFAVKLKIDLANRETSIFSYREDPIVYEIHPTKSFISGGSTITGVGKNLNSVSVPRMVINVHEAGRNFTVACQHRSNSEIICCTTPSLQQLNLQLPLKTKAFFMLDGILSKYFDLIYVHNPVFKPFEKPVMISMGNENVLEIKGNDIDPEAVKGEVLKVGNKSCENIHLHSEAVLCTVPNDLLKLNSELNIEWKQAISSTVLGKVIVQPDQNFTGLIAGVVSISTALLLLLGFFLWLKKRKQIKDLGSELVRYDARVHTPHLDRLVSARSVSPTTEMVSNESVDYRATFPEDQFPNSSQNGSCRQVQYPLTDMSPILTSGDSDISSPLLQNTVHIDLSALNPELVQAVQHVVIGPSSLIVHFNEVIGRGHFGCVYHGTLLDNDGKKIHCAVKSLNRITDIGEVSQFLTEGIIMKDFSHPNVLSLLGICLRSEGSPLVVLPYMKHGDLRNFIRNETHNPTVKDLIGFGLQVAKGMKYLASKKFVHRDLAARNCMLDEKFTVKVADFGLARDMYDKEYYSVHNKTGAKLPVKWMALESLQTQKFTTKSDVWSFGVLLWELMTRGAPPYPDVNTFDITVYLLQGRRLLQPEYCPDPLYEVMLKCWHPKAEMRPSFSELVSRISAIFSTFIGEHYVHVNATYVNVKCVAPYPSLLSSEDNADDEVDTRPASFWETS
Sequence of ProfilerPro Kinase Selectivity Assay Kit kinases (Homo sapiens, UniProt Q06187) (Q06187 2-659 limits assumed): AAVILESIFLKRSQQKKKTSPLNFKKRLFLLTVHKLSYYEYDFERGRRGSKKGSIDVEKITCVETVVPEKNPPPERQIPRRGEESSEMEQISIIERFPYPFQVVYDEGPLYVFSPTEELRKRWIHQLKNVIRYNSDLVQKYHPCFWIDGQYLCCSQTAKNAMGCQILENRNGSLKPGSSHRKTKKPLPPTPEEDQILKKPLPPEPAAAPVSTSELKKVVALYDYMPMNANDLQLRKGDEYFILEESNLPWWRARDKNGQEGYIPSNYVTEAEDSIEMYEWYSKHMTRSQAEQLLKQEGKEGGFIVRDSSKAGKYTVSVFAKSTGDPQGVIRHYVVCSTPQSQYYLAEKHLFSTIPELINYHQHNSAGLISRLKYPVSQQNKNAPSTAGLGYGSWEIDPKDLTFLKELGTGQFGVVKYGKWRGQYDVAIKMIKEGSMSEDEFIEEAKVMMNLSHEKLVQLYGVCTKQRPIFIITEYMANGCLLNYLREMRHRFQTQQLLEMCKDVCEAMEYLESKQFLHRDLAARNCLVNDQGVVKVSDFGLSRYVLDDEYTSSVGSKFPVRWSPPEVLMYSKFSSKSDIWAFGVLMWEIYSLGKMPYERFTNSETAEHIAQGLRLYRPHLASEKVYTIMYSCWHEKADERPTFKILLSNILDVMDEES
Sequence of ProfilerPro Kinase Selectivity Assay Kit kinases (Homo sapiens, UniProt P27361) (P27361 2-379 limits assumed): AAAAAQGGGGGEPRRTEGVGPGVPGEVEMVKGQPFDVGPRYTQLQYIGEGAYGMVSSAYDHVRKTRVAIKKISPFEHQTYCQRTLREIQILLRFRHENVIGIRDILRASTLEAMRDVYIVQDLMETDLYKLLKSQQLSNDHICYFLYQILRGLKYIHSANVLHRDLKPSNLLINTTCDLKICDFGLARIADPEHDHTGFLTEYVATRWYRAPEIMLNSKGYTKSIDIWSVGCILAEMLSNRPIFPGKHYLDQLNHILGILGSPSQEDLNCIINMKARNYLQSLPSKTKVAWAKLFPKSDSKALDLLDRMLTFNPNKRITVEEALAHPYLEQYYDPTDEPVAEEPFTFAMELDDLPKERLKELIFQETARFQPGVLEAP
Sequence of ProfilerPro Kinase Selectivity Assay Kit kinases (Homo sapiens, UniProt P07948) (P07948 2-512 limits assumed): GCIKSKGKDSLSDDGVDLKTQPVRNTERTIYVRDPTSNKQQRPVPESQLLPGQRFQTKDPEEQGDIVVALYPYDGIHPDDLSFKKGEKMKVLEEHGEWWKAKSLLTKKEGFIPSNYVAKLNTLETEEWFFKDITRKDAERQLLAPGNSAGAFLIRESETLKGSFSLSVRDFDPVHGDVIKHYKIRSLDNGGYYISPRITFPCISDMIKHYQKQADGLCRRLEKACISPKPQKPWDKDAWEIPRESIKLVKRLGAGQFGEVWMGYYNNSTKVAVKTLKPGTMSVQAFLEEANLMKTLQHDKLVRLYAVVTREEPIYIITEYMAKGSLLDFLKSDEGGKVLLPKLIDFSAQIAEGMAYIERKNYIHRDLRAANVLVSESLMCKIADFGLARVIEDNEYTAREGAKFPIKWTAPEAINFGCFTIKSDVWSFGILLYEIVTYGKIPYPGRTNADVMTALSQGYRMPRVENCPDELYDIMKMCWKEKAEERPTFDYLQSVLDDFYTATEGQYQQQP

Structure (SMILES) | POC (Percent of control) SGK1 [1] | POC (Percent of control) CHK1 [2] | POC (Percent of control) AURORA A [3] | POC (Percent of control) ROCK2 [4] | POC (Percent of control) MSK1 [5] | POC (Percent of control) HGK [6] | POC (Percent of control) ABL [7] | POC (Percent of control) INSR [8] | POC (Percent of control) FYN [9] | POC (Percent of control) LYN [10] | POC (Percent of control) IGF1R [11] | POC (Percent of control) cMET [12] | POC (Percent of control) FGFR1 [13] | POC (Percent of control) SRC [14] | POC (Percent of control) PKA alpha [15] | POC (Percent of control) CDK2 [16] | POC (Percent of control) ERK1 [17] | POC (Percent of control) AKT2 [18] | POC (Percent of control) KDR [19] | POC (Percent of control) FLT3 [20] | further results
Cc1nc(N)nc(-c2cc(CN3CCN(S(C)(=O)=O)CC3)cnc2Nc2cccc(O)c2)n1 [Example 30, 3-(3-(4-Amino-6-Methyl-1,3,5-Triazin-2-yl)-5-((4-(Methyl Sulfonyl)Piperazin-1-yl)Methyl)Pyridin-2-Ylamino)Phenol] | 93 POC | 96 POC | 100 POC | 98 POC | 90 POC | 96 POC | 98 POC | 102 POC | 97 POC | 100 POC | 80 POC | 101 POC | 99 POC | 103 POC | 100 POC | 101 POC | 93 POC | 105 POC | 102 POC | 99 POC | POC (Percent of control) SYK [21]: 106 POC; POC (Percent of control) CK1 delta [22]: 95 POC; POC (Percent of control) MAPKAPK2 [23]: 103 POC; POC (Percent of control) BTK [24]: 97 POC; POC (Percent of control) PAK2 [25]: 105 POC; POC (Percent of control) MST2 [26]: 98 POC; POC (Percent of control) DYRK1a [27]: 93 POC; POC (Percent of control) PRAK [28]: 112 POC; POC (Percent of control) PKD2 [29]: 98 POC; POC (Percent of control) MARK1 [30]: 98 POC; POC (Percent of control) AMPK [31]: 91 POC; POC (Percent of control) CAMK2 [31]: 103 POC; POC (Percent of control) PKC beta2 [31]: 94 POC; POC (Percent of control) TAK1 [31]: 99 POC
Cc1cnc(Nc2cccc3[nH]ccc23)c(-c2nc(C)nc(N)n2)c1 [Example 46, N-(3-(4-Amino-6-Methyl-1,3,5-Triazin-2-yl)-5-Methylpyridin-2-yl)-1H-Indol-4-Amine] | 89 POC | 98 POC | 31 POC | 94 POC | 103 POC | 104 POC | 97 POC | 98 POC | 101 POC | 96 POC | 78 POC | 104 POC | 98 POC | 96 POC | 102 POC | 97 POC | 92 POC | 110 POC | 90 POC | 99 POC | POC (Percent of control) SYK [21]: 104 POC; POC (Percent of control) CK1 delta [22]: 91 POC; POC (Percent of control) MAPKAPK2 [23]: 98 POC; POC (Percent of control) BTK [24]: 98 POC; POC (Percent of control) PAK2 [25]: 95 POC; POC (Percent of control) MST2 [26]: 96 POC; POC (Percent of control) DYRK1a [27]: 96 POC; POC (Percent of control) PRAK [28]: 111 POC; POC (Percent of control) PKD2 [29]: 106 POC; POC (Percent of control) MARK1 [30]: 102 POC; POC (Percent of control) AMPK [31]: 91 POC; POC (Percent of control) CAMK2 [31]: 105 POC; POC (Percent of control) PKC beta2 [31]: 96 POC; POC (Percent of control) TAK1 [31]: 98 POC
